Results published in PMC6522930, “Design, synthesis and biological activity evaluation of a new class of 2,4-thiazolidinedione compounds as insulin enhancers” (Journal of Enzyme Inhibition and Medicinal Chemistry, 2019).

How the values were obtained:
[1] = Lipid–water partition coefficient (log p); type: physicochemical
Excerpt: (§1) Drug in vitro experiment was one of the basic contents to evaluate drugs activity, and it was a necessary approach to research drugs. Drugs’ efficacy was often affected by some physical and chemical properties of compounds, such as lipid–water partition coefficient (log p), and dissociation degree (pKa). […] In Table 1, we could find that target compounds were fat-soluble. The fat-soluble compounds were favourable for drugs absorption, and drugs were easy to enter the cells. […] The pKa will affect the absorption and delivery of the drugs, different environmental (acid and alkalinity) medicine may be different, sometimes exists in the form of ions, sometimes exists in the form of molecules. Usually in the form of ion drugs has no effect. Therefore, it was necessary to study the dissociation degree (pKa) of drugs to study the pharmacodynamics. […] After the physical and chemical properties were studied, the biological activity was studied. […] After that, the target compounds 6a, 6e, 6f, 6g and 6i had good biological activity and were preliminarily screened out for further study on PPARγ receptor agonist activity (Figure 5).

[2] = target: T1, PPARα (Homo sapiens, UniProt Q07869); assay: In vitro activation of PPARα (cells containing PPAR, EC50); type: cell-based; details: n ≥ 8, 24 h; for EC50: read-out: EC50 ± SD PPARα
T1 construct: expressed in transfected cells
T1 sequence (Q07869 1-468): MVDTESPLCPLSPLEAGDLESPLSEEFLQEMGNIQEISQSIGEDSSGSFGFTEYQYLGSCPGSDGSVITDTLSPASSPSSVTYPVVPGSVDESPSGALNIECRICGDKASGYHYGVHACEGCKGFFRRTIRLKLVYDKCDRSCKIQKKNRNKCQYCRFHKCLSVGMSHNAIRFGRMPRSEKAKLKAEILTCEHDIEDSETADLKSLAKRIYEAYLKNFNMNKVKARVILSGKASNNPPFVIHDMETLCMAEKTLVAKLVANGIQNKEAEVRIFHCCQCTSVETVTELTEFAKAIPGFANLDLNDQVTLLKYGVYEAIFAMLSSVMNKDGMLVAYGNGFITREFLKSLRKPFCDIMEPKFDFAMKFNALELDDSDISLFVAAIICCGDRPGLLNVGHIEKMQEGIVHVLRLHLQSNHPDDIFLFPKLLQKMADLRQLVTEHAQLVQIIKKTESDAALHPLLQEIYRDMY
Experimental: (§2) According to the literature, the cells containing PPAR (α, β and γ) were obtained and transfected into 96-well plates the day before for cells culture. Transfection was performed according to the instructions of human PPAR enzyme-linked immunoassay. […] After 24 h, the drugs were added, and 20 μl of MTT was added to each well for another 6 h, and the cell liquid was collected by removing the culture medium, and 150 μl of DMSO was added to each hole. And the absorbance value (A) of each hole was measured under the wavelength of 460 nm.

[3] = tested on: HUVEC cells; assay: Cell survival experiment (cytotoxicity); type: cell-based; details: for Cell survival rate: HUVEC cells
Experimental: (§3) (1) Glucose tolerance test: The healthy mice (20 ± 2 g) were selected. After 1 week of acclimation, mice with no body surface damage, good general condition and flexible reaction were selected for the experiment. The test compounds were dissolved with DMSO, and were given a dose volume of 0.2 ml 10 g^−1, and a dose of 10 mg kg^−1, and given by gavage (oral) once a day. […] The mice were given the drug for 10 d, and after the last dose, the mice fasted for 12 h. The next day, blood was collected from the tail vein of the mice before and after the sugar load for 1 h and 2 h, and the blood glucose level of the mice before and after the sugar load was measured by the glucometer. […] The 12 h of fasting after the last administration, blood was taken from the orbital venous plexus (used to measure the blood glucose level after fasting). Each group was immediately given a subcutaneous injection of 0.2 μg kg^−1 of insulin. After 1 h and 2 h of injection, blood was taken again. (3) Cell survival experiment: The HUVEC cells were inoculated on the 96-well plate at the initial concentration of 3 × 10^3 cells/holes, and 100 μl RPMI 1640 medium were added to each hole. At 5% CO2 and 37 °C cell cultivation in 24 h, every pore solution in different concentrations. […] And determine the hole under 460 nm wavelength absorbance value (A).

[4] = tested on: healthy mice; assay: Insulin tolerance test (blood glucose under insulin load); type: in vivo
Experimental: as §3

[5] = Acute toxicity test (LD50); type: in vivo; details: oral administration; n ≥ 3
[6] = Dissociation degree (pKa); type: physicochemical
Excerpt: as §1

[7] = tested on: healthy mice; assay: Oral glucose tolerance test; type: in vivo
Experimental: In vivo experiments, glucose tolerance test, insulin tolerance test, cell survival experiment and acute toxicity were used as the test indicators (Tables 2, [3] and [4]). In Table 2, we chose dose 10 mg kg^−1 d^−1 and used oral administration. […] The mice were given the drug for 10 d, blood was collected from the tail vein of the mice before and after the sugar load for 1 h and 2 h, and the blood glucose level of the mice before and after the sugar load was measured by the glucometer.
as §3

[8] = target: T2, PPARγ (Homo sapiens, UniProt P37231); assay: In vitro activation of PPARγ (cells containing PPAR, EC50); type: cell-based; details: n ≥ 8; 24 h; read-out: EC50 ± SD PPARγ
T2 construct: expressed in transfected cells
T2 sequence (P37231 1-505): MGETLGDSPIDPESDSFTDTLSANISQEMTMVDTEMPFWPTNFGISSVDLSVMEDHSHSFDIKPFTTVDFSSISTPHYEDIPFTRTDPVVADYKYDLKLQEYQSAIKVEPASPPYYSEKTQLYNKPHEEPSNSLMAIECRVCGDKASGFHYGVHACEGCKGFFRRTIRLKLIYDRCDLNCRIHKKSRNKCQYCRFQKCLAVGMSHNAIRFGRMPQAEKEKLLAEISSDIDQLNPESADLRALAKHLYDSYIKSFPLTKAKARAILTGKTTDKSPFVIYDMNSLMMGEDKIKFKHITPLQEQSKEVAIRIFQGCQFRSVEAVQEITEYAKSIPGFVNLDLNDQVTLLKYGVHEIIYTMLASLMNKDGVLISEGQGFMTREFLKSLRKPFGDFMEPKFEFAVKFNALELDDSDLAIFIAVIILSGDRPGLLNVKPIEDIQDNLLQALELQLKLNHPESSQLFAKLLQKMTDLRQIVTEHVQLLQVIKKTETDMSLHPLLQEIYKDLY
Experimental: as §2

[9] = target: T3, PPARβ (Homo sapiens, UniProt Q03181); assay: In vitro activation of PPARβ (cells containing PPAR, EC50); type: cell-based; details: n ≥ 8; 24 h; read-out: EC50 ± SD PPARβ
T3 construct: expressed in transfected cells
T3 sequence (Q03181 1-441): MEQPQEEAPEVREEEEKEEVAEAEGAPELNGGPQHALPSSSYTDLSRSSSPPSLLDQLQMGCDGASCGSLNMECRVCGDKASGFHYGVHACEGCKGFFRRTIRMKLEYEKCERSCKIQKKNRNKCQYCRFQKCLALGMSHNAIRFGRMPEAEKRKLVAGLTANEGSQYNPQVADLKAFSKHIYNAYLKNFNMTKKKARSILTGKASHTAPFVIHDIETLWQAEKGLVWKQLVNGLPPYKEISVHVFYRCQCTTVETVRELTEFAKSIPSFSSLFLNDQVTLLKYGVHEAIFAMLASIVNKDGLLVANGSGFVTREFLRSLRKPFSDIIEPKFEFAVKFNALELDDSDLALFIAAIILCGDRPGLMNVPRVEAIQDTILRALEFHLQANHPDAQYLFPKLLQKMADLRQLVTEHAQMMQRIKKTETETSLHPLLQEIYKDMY
Experimental: as §2

| Compound | logP [1] | pKa [6] | EC50 [8] [µM] | EC50 [2] [µM] | EC50 [9] [µM] | other results |
| --- | --- | --- | --- | --- | --- | --- |
| O=C1NC(=O)C(Cc2ccc(OCCNC(=O)c3ccccc3)cc2)S1 (stereo not shown) [Compound 6a, N-(2–(4-((2,4-dioxothiazolidin-5-yl)methyl)phenoxy)ethyl) benzamide] | 2.68 | 10.4 | 0.08 ± 0.02 | – | – | EC50 ± SD PPARα [2]: ia^b; Cytotoxic effect (in words) ([3]; 10^−3–10^−2 mol L^−1): no obvious cytotoxic effect; Cell survival rate ([3]; 10^−2 mol l^−1): 93.1 ± 1.21%; Cell survival rate ([3]; 10^−3 mol l^−1): 98.1 ± 0.28%; Cell survival rate ([3]; 10^−4 mol l^−1): 99.3 ± 0.26%; Cell survival rate ([3]; 10^−5 mol l^−1): 99.9 ± 0.11%; Cell survival rate ([3]; 10^−6 mol l^−1): 100%; Effect in insulin tolerance test (in words) ([4]; 10 mg kg^−1 d^−1): good resistance activation to insulin; Blood glucose levels 1 h ([4]; 10 mg kg^−1 d^−1 for 15 d, 1 h after s.c. insulin 0.2 μg kg^−1): 1.801 ± 0.531 mmol/L; Blood glucose levels 2 h ([4]; 10 mg kg^−1 d^−1 for 15 d, 2 h after s.c. insulin 0.2 μg kg^−1): 2.498 ± 1.136 mmol/L; Blood glucose levels 0 h ([4]; 10 mg kg^−1 d^−1 for 15 d, fasted 12 h, before insulin): 5.644 ± 1.035 mmol/L; LD50 ± SD [5]: 2313.6 ± 1.26 mg/kg; Blood glucose levels 1 h ([7]; 10 mg kg^−1 d^−1 oral for 10 d, 1 h after sugar load): 6.342 ± 2.011 mmol/L; Blood glucose levels 2 h ([7]; 10 mg kg^−1 d^−1 oral for 10 d, 2 h after sugar load): 3.368 ± 1.341 mmol/L; Blood glucose levels 0 h ([7]; 10 mg kg^−1 d^−1 oral for 10 d, fasted 12 h, before sugar load): 3.376 ± 0.361 mmol/L; Effect in glucose tolerance test (in words) ([7]; 10 mg kg^−1 d^−1 oral, 10 d): good resistance activation to glucose |
| O=C1NC(=O)C(Cc2ccc(OCCNC(=O)c3ccccc3)cn2)S1 (stereo not shown) [Compound 6b, N-(2-((6-((2,4-dioxothiazolidin-5-yl)methyl)pyridin-3-yl)oxy)ethyl) benzamide] | 1.77 | 10.4 | 1.29 ± 0.53 | 12.9 ± 1.29 | 9.18 ± 0.89 | – |
| O=C1NC(=O)C(Cc2ccc(OCCNC(=O)c3ccccn3)cn2)S1 (stereo not shown) [Compound 6d, N-(2-((6-((2,4-dioxothiazolidin-5-yl)methyl)pyridin-3-yl)oxy)ethyl) picolinamide] | 1.38 | 9.78 | 3.22 ± 0.65 | – | 12.2 ± 1.21 | – |

The next lines start with results.

| logP [1] | pKa [6] | EC50 [8] [µM] | EC50 [2] [µM] | EC50 [9] [µM] | Compound | other results |
| --- | --- | --- | --- | --- | --- | --- |
| 2.11 | 9.01 | 0.34 ± 0.15 | – | 14.5 ± 1.2 | O=C1NC(=O)C(Cc2ccc(OCCNC(=O)c3ccc(O)cc3)cn2)S1 (stereo not shown) [Compound 6j, N-(2-((6-((2,4-dioxothiazolidin-5-yl)methyl)pyridin-3-yl)oxy)ethyl)-4-hydroxybenzamide] | – |
| 1.45 | 8.58 | 2.68 ± 0.46 | 9.34 ± 1.01 | 10.1 ± 1.12 | O=C1NC(=O)C(Cc2ccc(OCCNC(=O)c3ccc(O)cn3)cn2)S1 (stereo not shown) [Compound 6l, N-(2-((6-((2,4-dioxothiazolidin-5-yl)methyl)pyridin-3-yl)oxy)ethyl)-5-hydroxypicolinamide] | – |
